# Earlier results, collected in patent US20220296715A1, “METHOD FOR PREVENTING PRECIPITATION OF INJECTABLE SOLUTION CONTAINING p-BORONOPHENYLALANINE” (Stella Pharma Corporation, priority 2019, published 2022).
# Conditions: physiological pH
structure (smiles),measurement,value
"N[C@@H](Cc1ccc(B(O)O)cc1)C(=O)O [p-Boronophenylalanine, p-boronophenylalanine]",solubility,very poor solubility
